Values quoted from earlier work as cited in patent publication US8604084B2, “Method” (GlaxoSmithKline, LLC, priority 2008, dated 2013).

- mean plasma half-life (adults): 2.4 h
- plasma half-life, range (adults): 1.5 to 3.0 h
- absolute oral bioavailability (independent of dose in the range of 5-20 mg/kg): about 80%
Structure (SMILES): CC(=O)Nc1ccc(O)cc1 [Paracetamol]
- plasma protein binding (in vivo): not bound to plasma protein to any extent
- volume of distribution (per body weight): about 0.9 litre/kilogram
